One test concerns T47D cells. As to the kind of experiment: Cell-based assay: anti-proliferative activity, Cell Counting Kit-8, 72 hours (T47D). The procedure, abridged: (§1)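 Proliferation read with Cell Counting Kit-8 after 72 hours of inhibitor treatment, from seeding of 2,000–3,000 cells/well. Lines: T47D, A549, BT-549; HT-1197, lacking MELK by western blot, served as negative control. IC50 derived.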
(Tetrazolium assays rely on reduction of a dye to a coloured formazan, in cell work by metabolically active cells.)

In another test the test system is HT-1197 cells. As to the kind of experiment: Cell-based assay: anti-proliferative activity, Cell Counting Kit-8, 72 hours (HT-1197, negative control without MELK expression). In outline: as §1
A further test has as its target MELK (Homo sapiens, UniProt Q14680). As to the kind of experiment: Kinase assay: MELK activity, phosphorylation of FITC-labeled histone H3 peptide measured by IMAP fluorescence polarization. It counts as biochemical. The note with it: read-out: IC50 (μM) (kinase assay). In outline: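 Fluorescence polarization was measured 0.5 h (room temperature) after quenching with threefold volume of progressive binding solution. Test compounds from 12.5 mM DMSO stocks were assayed at 1% DMSO.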

For a further test, the system named is BT-549 cells. As to the kind of experiment: Cell-based assay: anti-proliferative activity, Cell Counting Kit-8, 72 hours (BT-549). The note with it: BT549 cells, MELK-expressing, Cell Counting Kit-8 at 72 hours. The procedure: To evaluate the expression status of MELK in several cell lines, western blot analysis was performed using crude cell lysate collected from those cells. Anti-MELK antibody (clone 31, BD Biosciences) was used to visualize the expression.
Active candidate inhibitors against MELK were evaluated for their target-specific cytotoxicity using T47D, A549, BT-549, and HT-1197 cells was used for negative control. 100 micro-L of cell suspension was seeded onto 96-well microtiter plate (ViewPlate-96FTC, PerkinElmer). The initial cell concentration of T47D, A549, BT-549, and HT-1197 were 3,000 cells/well, 2,000 cells/well and 2,500 cells/well, respectively. Cellular growth was determined using Cell Counting Kit-8 (DOJINDO) at 72 hours after the exposure of the candidate inhibitors. […] Accurate IC50 values were calculated as described previously.

The next test concerns A549 cells. As to the kind of experiment: Cell-based assay: anti-proliferative activity, Cell Counting Kit-8, 72 hours (A549). In outline: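 A549 cells seeded in 96-well plates and exposed to candidate inhibitors for 72 hours. Growth measured with Cell Counting Kit-8; IC50 values calculated from the dose response.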
The test system of the next test is 22Rv1 cells. As to the kind of experiment: Cell-based assay: anti-proliferative activity, Cell Counting Kit-8, 72 hours (22Rv1). The note with it: Homo sapiens, 22Rv1, 72 h.
The next test deals with DU4475 cells. As to the kind of experiment: Cell-based assay: anti-proliferative activity, Cell Counting Kit-8, 72 hours (DU4475). The note with it: Homo sapiens, DU-4475, 72 h.
Setting [1] is: Homo sapiens, T47D, 72 h, MELK-expressing, Cell Counting Kit-8 at 72 hours.
Where [2] appears, read: Homo sapiens, HT1197, 72 h, HT1197 cells, no MELK expression (negative control), Cell Counting Kit-8 at 72 hours.
The mark [3] stands for this setting: 50 micro-M ATP, FITC-labeled histone H3 peptide substrate, IMAP fluorescence polarization.
[4] abbreviates: Homo sapiens, A549, 72 h, MELK-expressing, Cell Counting Kit-8 at 72 hours.
Where [5] appears, read: MELK-expressing, Cell Counting Kit-8 at 72 hours, dihydrochloride.
[6] abbreviates: Homo sapiens, HT1197, 72 h, HT1197 cells (negative control, no MELK expression), 72 hours.
[7] abbreviates: Homo sapiens, A549, 72 h, 72 hours.
Where [8] appears, read: MELK kinase assay, IMAP fluorescence polarization, 50 micro-M ATP.

Where a name gives a salt, the structure may show the parent alone. Read-outs that look alike come from different tables or passages of the source.

Chain of MELK (Q14680 whole entry, looked up): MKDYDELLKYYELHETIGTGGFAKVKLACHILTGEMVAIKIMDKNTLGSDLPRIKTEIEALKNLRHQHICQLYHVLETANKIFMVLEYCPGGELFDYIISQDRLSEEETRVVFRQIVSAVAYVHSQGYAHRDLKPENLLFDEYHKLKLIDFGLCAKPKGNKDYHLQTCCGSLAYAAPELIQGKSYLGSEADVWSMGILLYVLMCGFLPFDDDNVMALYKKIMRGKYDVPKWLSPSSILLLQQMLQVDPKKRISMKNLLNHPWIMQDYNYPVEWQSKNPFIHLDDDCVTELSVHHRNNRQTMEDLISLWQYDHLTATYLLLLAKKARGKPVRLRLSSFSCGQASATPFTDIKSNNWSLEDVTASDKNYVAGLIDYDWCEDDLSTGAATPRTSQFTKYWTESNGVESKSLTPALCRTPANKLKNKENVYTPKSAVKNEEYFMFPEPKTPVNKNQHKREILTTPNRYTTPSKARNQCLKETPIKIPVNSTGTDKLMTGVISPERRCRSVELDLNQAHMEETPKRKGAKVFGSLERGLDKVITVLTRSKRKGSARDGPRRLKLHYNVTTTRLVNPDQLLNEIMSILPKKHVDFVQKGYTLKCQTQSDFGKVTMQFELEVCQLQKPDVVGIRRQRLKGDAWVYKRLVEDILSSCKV

For `N[C@H]1CC[C@H](Nc2c(C(=O)C3CC3)cnc3ccc(-c4cn[nH]c4)cc23)CC1` [Example 213, {4-[trans-4-Aminocyclohexylamino]-6-(1H-pyrazol-4-yl)quinolin-3-yl}(cyclopropyl)methanone], the IC50 with T47D cells (setting [1]) is 0.89 µM; in the test with HT-1197 cells (setting [2]) it was 14 µM; on MELK (setting [3]) it was 0.067 µM; in the test with BT-549 cells (Homo sapiens, BT-549, 72 h) it was 1.7 µM; with A549 cells (setting [4]) it was 5.1 µM.
The corresponding values for `COc1cc(-c2ccc3ncc(C(=O)C4CC4)c(NCC4CCN(C)CC4)c3c2)cc(Cl)c1O` [Example 201, {6-(3-Chloro-4-hydroxy-5-methoxyphenyl)-4-[(1-methylpiperidin-4-yl)methylamino]quinolin-3-yl}(cyclopropyl)methanone] are 0.76 µM, 7.4 µM, 0.0034 µM, 1.8 µM and 0.73 µM.
For `COc1cc(-c2ccc3ncc(C(=O)C4CC4)c(NC4CCN(C)CC4)c3c2)cc(Cl)c1O` [Example 249], the IC50 in the test on T47D cells (setting [1]) was found to be 0.83 µM; in the test on HT-1197 cells (setting [2]) it was 4.4 µM; at MELK (setting [3]), 0.0079 µM; with BT-549 cells (Homo sapiens, BT-549, 72 h), 1.3 µM; with A549 cells (setting [4]), 0.3 µM.
For `CCOc1cc(-c2ccc3ncc(C(=O)C4CC4)c(N4CCC(CN(C)C)CC4)c3c2)ccc1O` [Example 353, Cyclopropyl[4-{4-[(dimethylamino)methyl]piperidin-1-yl}-6-(3-ethoxy-4-hydroxyphenyl)quinolin-3-yl]methanone], the IC50 came out at 0.61 µM in the test with T47D cells (setting [1]); 2.5 µM in the test on HT-1197 cells (setting [2]); 0.0017 µM on MELK (setting [3]); 1.5 µM in the test on BT-549 cells (Homo sapiens, BT-549, 72 h); 0.68 µM in the test with A549 cells (setting [4]).
For the compound `CC(C)C(=O)c1cnc2ccc(-c3cc(F)c(O)c(F)c3)cc2c1N[C@H]1CC[C@H](N)CC1` [Example 214, 1-{4-[trans-4-Aminocyclohexylamino]-6-(3,5-difluoro-4-hydroxyphenyl)quinolin-3-yl}-2-methylpropan-1-one], the IC50 is 0.048 µM in the test on T47D cells (setting [1]); 1.4 µM with HT-1197 cells (setting [2]); 0.043 µM at MELK (setting [3]); 0.084 µM in the test on BT-549 cells (Homo sapiens, BT-549, 72 h); 0.65 µM in the test on A549 cells (setting [4]).
For `COc1cc(-c2ccc3ncc(C(=O)C4CC4)c(N4CCC5(CCNC5)CC4)c3c2)cc(Cl)c1O` [Example 155, [6-(3-Chloro-4-hydroxy-5-methoxyphenyl)-4-(2,8-diazaspiro[4,5]decan-8-yl)quinolin-3-yl](cyclopropyl)methanone], the IC50 in the test on T47D cells (setting [1]) worked out at 0.43 µM; with HT-1197 cells (setting [2]), 2.4 µM; at MELK (setting [3]) it was 0.004 µM; in the test with BT-549 cells (Homo sapiens, BT-549, 72 h), 0.79 µM; in the test with A549 cells (setting [4]), 0.68 µM.
The corresponding values for `COc1cc(-c2ccc3ncc(C(=O)C4CC4)c(Nc4ccc(CN(C)C)cc4)c3c2)cc(Cl)c1O` [Example 339] are 0.15 µM, 1.9 µM, 0.004 µM, 0.49 µM and 0.19 µM.
For `COc1cc(-c2cc3c(N[C@H]4CC[C@H](N)CC4)c(C(=O)C4CC4)cnc3cc2F)cc(Cl)c1O` [Example 284, {4-[trans-4-aminocyclohexylamino]-6-(3-chloro-4-hydroxy-5-methoxyphenyl)-7-fluoroquinolin-3-yl}(cyclopropyl)methanone], the IC50 was 0.62 µM in the test on T47D cells (setting [1]); 2.2 µM in the test with HT-1197 cells (setting [2]); 0.013 µM at MELK (setting [3]); 1.7 µM in the test on BT-549 cells (Homo sapiens, BT-549, 72 h); 0.49 µM in the test with A549 cells (setting [4]).
The corresponding values for `COc1cc(-c2ccc3ncc(C(=O)C4CC4)c(N[C@H]4CC[C@H](N)CC4)c3c2)ccc1O` [Example 81, {4-[trans-4-Aminocyclohexylamino]-6-(4-hydroxy-3-methoxyphenyl)quinolin-3-yl}(cyclopropyl)methanone] are 0.13 µM, 1.2 µM, 0.007 µM, 0.55 µM and 0.23 µM.
The corresponding values for `COc1cc(-c2ccc3ncc(C(=O)C4CC4)c(-c4ccc(CN(C)C)cc4)c3c2)cc(Cl)c1O` [Example 356] are 0.46 µM, 3.5 µM, 0.0042 µM, 0.87 µM and 0.45 µM.
Regarding `CCN(CC)C1CCC(Nc2c(C(=O)C3CC3)cnc3ccc(-c4cc(Cl)c(O)c(OC)c4)cc23)CC1` (centres unmarked) [Example 185(b), {6-(3-Chloro-4-hydroxy-5-methoxyphenyl)-4-[4-(diethylamino)cyclohexylamino]quinolin-3-yl}(cyclopropyl)methanone dihydrochloride], the IC50 in the test on T47D cells (setting [5]) worked out at 0.49 µM; with HT-1197 cells (HT1197 cells, no MELK expression (negative control), Cell Counting Kit-8 at 72 hours, dihydrochloride), 4.7 µM; in the test on BT-549 cells (dihydrochloride) it was 1 µM; with A549 cells (setting [5]), 0.18 µM.
For the compound `COc1cc(-c2ccc3ncc(C(=O)C4CC4)c(NC[C@H]4CC[C@H](N(C)C)CC4)c3c2)cc(Cl)c1O` [Example 315], the IC50 in the test with T47D cells (setting [1]) was 0.64 µM; in the test on HT-1197 cells (setting [2]) it was 3 µM; on MELK (setting [3]), 0.0043 µM; with BT-549 cells (Homo sapiens, BT-549, 72 h), 1.4 µM; with A549 cells (setting [4]) it was 0.3 µM.
Consider `CCN(CC)C[C@H]1CC[C@H](Nc2c(C(C)=O)cnc3ccc(-c4cc(F)c(O)c(Cl)c4)cc23)CC1` [Example 794], for which the IC50 in the test with T47D cells (Homo sapiens, T47D, 72 h) was 0.031 µM; in the test on 22Rv1 cells, 0.094 µM; in the test on HT-1197 cells (setting [6]) it was 0.75 µM; with DU4475 cells, 0.074 µM; on MELK it was 0.0056 µM; in the test on A549 cells (setting [7]), 0.077 µM.
For the compound `CN1CCN(c2ccc(Nc3c(C(=O)C4CC4)cnc4ccc(-c5cc(F)c(O)c(F)c5)cc34)cn2)CC1` [Example 778, cyclopropyl(6-(3,5-difluoro-4-hydroxyphenyl)-4-(6-(4-methylpiperazin-1-yl)pyridin-3-ylamino)quinolin-3-yl)methanone], the IC50 in the test on T47D cells (Homo sapiens, T47D, 72 h) amounted to 0.1 µM; in the test on 22Rv1 cells, 0.48 µM; in the test with HT-1197 cells (setting [6]) it was 2.6 µM; with DU4475 cells, 0.22 µM; on MELK it was 0.021 µM; in the test on A549 cells (setting [7]), 0.17 µM.
For the compound `CC(=O)c1cnc2ccc(-c3cc(F)c(O)c(Cl)c3)cc2c1NC1CCC(C(=O)N2CCN(C)CC2)CC1` (centres unmarked) [Example 849, 1-(6-(3-chloro-5-fluoro-4-hydroxyphenyl)-4-(4-(4-methylpiperazine-1-carbonyl)cyclohexylamino)quinolin-3-yl)ethanone hydrochloride], the IC50 in the test with T47D cells (Homo sapiens, T47D, 72 h) came out at 0.47 µM; in the test with 22Rv1 cells, 1 µM; in the test with HT-1197 cells (setting [6]), 4.5 µM; with DU4475 cells, 1 µM; on MELK (setting [8]), 0.018 µM; in the test on A549 cells (setting [7]), 1.3 µM.
Turning to `CC(=O)c1cnc2ccc(-c3cc(F)c(O)c(Cl)c3)cc2c1N[C@H]1CC[C@H](CN2CCC[C@@H]2CO)CC1` [Example 808, 1-(6-(3-chloro-5-fluoro-4-hydroxyphenyl)-4-(1R,4R)-4-(((R)-2-(hydroxymethyl)pyrrolidin-1-yl)methyl)cyclohexylamino)quinolin-3-yl)ethanone hydrochloride], the IC50 with T47D cells (Homo sapiens, T47D, 72 h) is 0.12 µM; with 22Rv1 cells it was 0.22 µM; with HT-1197 cells (setting [6]), 8.2 µM; in the test on DU4475 cells, 0.11 µM; at MELK, 0.0065 µM; in the test on A549 cells (setting [7]), 0.22 µM.
As to `CNC1CCCN(c2ccc(Nc3c(C(C)=O)cnc4ccc(-c5cc(F)c(O)c(Cl)c5)cc34)cn2)C1` (centres unmarked) [Example 815, 1-(6-(3-chloro-5-fluoro-4-hydroxyphenyl)-4-((6-(3-(methylamino)piperidin-1-yl)pyridin-3-yl)amino)quinolin-3-yl)ethanone trihydrochloride], the IC50 in the test with T47D cells (Homo sapiens, T47D, 72 h) amounted to 0.016 µM; in the test on 22Rv1 cells, 0.034 µM; in the test with HT-1197 cells (setting [6]) it was 0.052 µM; with DU4475 cells it was 0.041 µM; at MELK (setting [8]), 0.0018 µM; with A549 cells (setting [7]), 0.041 µM.
On to `CC(=O)c1cnc2ccc(-c3cc(F)c(O)c(Cl)c3)cc2c1NC1CCN(CCN(C)C)CC1` [Example 821, 1-(6-(3-chloro-5-fluoro-4-hydroxyphenyl)-4-(1-(2-(dimethylamino)ethyl)piperidin-4-ylamino)quinolin-3-yl)ethanone], for which the IC50 is 0.23 µM in the test on T47D cells (Homo sapiens, T47D, 72 h); 0.25 µM in the test on 22Rv1 cells; 3.3 µM in the test on HT-1197 cells (setting [6]); 0.17 µM in the test on DU4475 cells; 0.0053 µM at MELK (setting [8]); 0.59 µM with A549 cells (setting [7]).

The IC50 is the concentration that inhibits the measured activity by half.

These data come from patent publication US9120749B2, “Quinoline derivatives and MELK inhibitors containing the same” (ONCOTHERAPY SCIENCE, INC., priority 2010, dated 2015).
